Laboratory results reported in PubChem BioAssay AID248 (DTP/NCI, 2004).
Several values for one entry are separate records, joined by “and”; a condition that tells them apart may be missing. Equal values may be shown once. Inconclusive results and toxic doses are left out. No stated cut-off is given here; in the data, active means T/C of 150% or more; inactive means T/C below 125%.

System: L1210 leukemia ip in BDF1 mice, survival T/C
Experiment: NCI In Vivo Anticancer Drug Screen. Data for tumor model L1210 Leukemia (intraperitoneal) in B6D2F1 (BDF1) mice
Conditions: endpoint: mean survival time, higher = longer survival
How it was run: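 Tumor cells were implanted, animals were treated, and survival was followed. The result divides the treated measurement by the vehicle-control measurement.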

[1] = dose: 100.0 mg/kg/injection, schedule: Q01DX009 (ip), vehicle: saline with Tween-80
[2] = dose: 100.0 mg/kg/injection, schedule: Q04DX003 (ip), vehicle: saline with Tween-80
[3] = dose: 200.0 mg/kg/injection, schedule: Q01DX009 (ip), vehicle: saline with Tween-80
[4] = dose: 200.0 mg/kg/injection, schedule: Q04DX003 (ip), vehicle: saline with Tween-80
[5] = dose: 400.0 mg/kg/injection, schedule: Q04DX003 (ip), vehicle: saline with Tween-80
[6] = dose: 100.0 mg/kg/injection, schedule: Q01DX001 (ip), vehicle: saline
[7] = dose: 200.0 mg/kg/injection, schedule: Q01DX001 (ip), vehicle: saline
[8] = dose: 400.0 mg/kg/injection, schedule: Q01DX001 (ip), vehicle: saline
[9] = dose: 100.0 mg/kg/injection, schedule: Q01DX009 (ip), vehicle: Klucel (hydroxypropylcellulose) (HPC)
[10] = dose: 200.0 mg/kg/injection, schedule: Q01DX009 (ip), vehicle: Klucel (hydroxypropylcellulose) (HPC)
[11] = dose: 400.0 mg/kg/injection, schedule: Q01DX009 (ip), vehicle: Klucel (hydroxypropylcellulose) (HPC)
[12] = dose: 100.0 mg/kg/injection, schedule: Q04DX002 (ip), vehicle: Klucel (hydroxypropylcellulose) (HPC)
[13] = dose: 200.0 mg/kg/injection, schedule: Q04DX002 (ip), vehicle: Klucel (hydroxypropylcellulose) (HPC)
[14] = dose: 400.0 mg/kg/injection, schedule: Q04DX002 (ip), vehicle: Klucel (hydroxypropylcellulose) (HPC)
[15] = dose: 100.0 mg/kg/injection, schedule: Q04DX003 (ip), vehicle: Klucel (hydroxypropylcellulose) (HPC)
[16] = dose: 200.0 mg/kg/injection, schedule: Q04DX003 (ip), vehicle: Klucel (hydroxypropylcellulose) (HPC)
[17] = dose: 400.0 mg/kg/injection, schedule: Q04DX003 (ip), vehicle: Klucel (hydroxypropylcellulose) (HPC)
[18] = dose: 25.0 mg/kg/injection, schedule: Q01DX009 (ip), vehicle: Klucel (hydroxypropylcellulose) (HPC)
[19] = dose: 50.0 mg/kg/injection, schedule: Q01DX009 (ip), vehicle: Klucel (hydroxypropylcellulose) (HPC)

Measured: T/C

CC1=C/C(=N/N=c2\ccn(O)cc2C)C=CC1=N
inactive: dose: 50.0 mg/kg/injection, schedule: Q04DX002 (sc), vehicle: saline with Tween-80 100 % of control | dose: 100.0 mg/kg/injection, schedule: Q04DX002 (sc), vehicle: saline with Tween-80 100 % of control | dose: 200.0 mg/kg/injection, schedule: Q04DX002 (sc), vehicle: saline with Tween-80 100 % of control | dose: 400.0 mg/kg/injection, schedule: Q04DX002 (sc), vehicle: saline with Tween-80 93 % of control

O=C1O/C(=C/c2ccccc2)C(O)=C1c1ccccc1
inactive: dose: 100.0 mg/kg/injection, schedule: Q04DX002 (ip), vehicle: saline with Tween-80 93 % of control | dose: 200.0 mg/kg/injection, schedule: Q04DX002 (ip), vehicle: saline with Tween-80 103 % of control

CCNC(=O)Nc1ccc(N(CC)CC)cc1
inactive: [1] 93 % of control | [2] 103 % of control | [3] 87 % of control | [4] 96 % of control | dose: 400.0 mg/kg/injection, schedule: Q01DX009 (ip), vehicle: saline with Tween-80 98 % of control | [5] 96 % of control

COC(=O)CCNc1ccccc1C(=O)OC
inactive: dose: 50.0 mg/kg/injection, schedule: Q01DX001 (ip), vehicle: carboxymethylcellulose (CMC) 100 % of control | dose: 100.0 mg/kg/injection, schedule: Q01DX001 (ip), vehicle: carboxymethylcellulose (CMC) 107 % of control | dose: 200.0 mg/kg/injection, schedule: Q01DX001 (ip), vehicle: carboxymethylcellulose (CMC) 113 % of control | dose: 400.0 mg/kg/injection, schedule: Q01DX001 (ip), vehicle: carboxymethylcellulose (CMC) 100 % of control

CC[CH2][Sn]([CH2]CC)([O]S(C)(=O)=O)[O]S(C)(=O)=O
inactive: dose: 1.56 mg/kg/injection, schedule: Q01DX009 (ip), vehicle: Klucel (hydroxypropylcellulose) (HPC) 115 % of control | dose: 3.12 mg/kg/injection, schedule: Q01DX009 (ip), vehicle: Klucel (hydroxypropylcellulose) (HPC) 97 % of control

CCOc1nc(Cl)nc2nc[nH]c12
inactive: [6] 102 % of control | [7] 102 % of control | [8] 96 % of control

CC(C)c1cc2c(cc1O)C1(C)CCCC(C)(C(=O)O)C1CC2 (stereo unspecified)
inactive: dose: 50.0 mg/kg/injection, schedule: Q04DX003 (ip), vehicle: acetone 87 % of control | dose: 100.0 mg/kg/injection, schedule: Q01DX001 (ip), vehicle: acetone 97 % of control | dose: 100.0 mg/kg/injection, schedule: Q04DX003 (ip), vehicle: acetone 90 % of control | dose: 200.0 mg/kg/injection, schedule: Q01DX001 (ip), vehicle: acetone 92 % of control | dose: 200.0 mg/kg/injection, schedule: Q04DX003 (ip), vehicle: acetone 89 % of control

C=CCNC(=S)Nc1cccc(OC(=O)NC(C)(C)C)c1
inactive: [9] 90 % of control | [10] 90 % of control | [11] 92 % of control

O=C(CCC(=O)Nc1ccc(Cl)c(Cl)c1)Nc1ccc(Cl)c(Cl)c1
inactive: [12] 93 % of control | [13] 89 % of control | [14] 104 % of control

Cn1c2nc3ccccc3c-2nc2ccccc21
inactive: [2] 91 % of control | [4] 94 % of control | [5] 86 % of control

Cc1ccc(S(=O)(=O)Nc2ccccc2-c2nc3ccc([N+](=O)[O-])cc3c(=O)o2)cc1
inactive: [1] 104 % of control | [3] 96 % of control

Cc1cccc([N+](=O)[O-])c1-c1c(C)cccc1[N+](=O)[O-]
inactive: dose: 50.0 mg/kg/injection, schedule: Q01DX001 (ip), vehicle: Klucel (hydroxypropylcellulose) (HPC) 102 % of control | dose: 100.0 mg/kg/injection, schedule: Q01DX001 (ip), vehicle: Klucel (hydroxypropylcellulose) (HPC) 102 % of control | dose: 200.0 mg/kg/injection, schedule: Q01DX001 (ip), vehicle: Klucel (hydroxypropylcellulose) (HPC) 96 % of control

COC(OC)c1[nH]c(=S)[nH]c(=O)c1Cc1c(Cl)cccc1Cl
inactive: [2] 101 % of control | [4] 103 % of control | [5] 94 % of control

FC(F)(F)c1ccc2c(c1)N(CCCN1CCN(CCOc3ccccc3)CC1)c1ccccc1S2
inactive: dose: 6.25 mg/kg/injection, schedule: Q04DX003 (ip), vehicle: saline 105 % of control | dose: 8.2 mg/kg/injection, schedule: Q04DX003 (ip), vehicle: saline 97 % of control and 98 % of control | dose: 12.5 mg/kg/injection, schedule: Q04DX003 (ip), vehicle: saline 104 % of control | dose: 18.0 mg/kg/injection, schedule: Q04DX003 (ip), vehicle: saline 101 % of control and 102 % of control

CC[N+](C)(CC)CCOC(=O)c1ccccc1Oc1ccc(C)cc1
inactive: dose: 100.0 mg/kg/injection, schedule: Q04DX003 (ip), vehicle: saline 96 % of control

Cc1cc(OC(=O)/C=C/C(=O)Oc2cc(C)c(Cl)c(C)c2)cc(C)c1Cl
inactive: [9] 97 % of control | [15] 105 % of control | [10] 95 % of control | [16] 104 % of control | [11] 97 % of control | [17] 104 % of control

CC(=O)OCc1cccnc1
inactive: [2] 95 % of control | [4] 94 % of control | [5] 97 % of control

O=C(O)CS(=O)(=O)C(c1ccccc1)c1ccccc1
inactive: [6] 94 % of control | [7] 97 % of control | [8] 96 % of control

Cc1cc(Cl)ccc1NS(=O)(=O)c1ccccc1
inactive: [9] 107 % of control | [15] 98 % of control | [10] 98 % of control | [16] 103 % of control | [11] 96 % of control | [17] 97 % of control

Cc1cc(Cl)ccc1NC(=O)COc1ccc(Cl)cc1
inactive: [18] 100 % of control | [19] 90 % of control | [9] 88 % of control | [15] 104 % of control | [16] 101 % of control | [17] 92 % of control

CC(C)(C)c1ccc(S(=O)(=O)c2ccc(C(C)(C)C)c([N+](=O)[O-])c2)cc1[N+](=O)[O-]
inactive: [12] 101 % of control | [13] 92 % of control | [14] 105 % of control

O=C(NC(CSC(c1ccccc1)c1ccccc1)C(=O)O)OCc1ccccc1 (stereo unspecified)
inactive: [18] 103 % of control | [19] 100 % of control | [9] 100 % of control and 88 % of control | [15] 93 % of control | [16] 95 % of control | [17] 89 % of control

NCCCC(N)C(=O)O (stereo unspecified)
inactive: [6] 98 % of control | [7] 102 % of control | [8] 106 % of control

O=[As](O)(O)Cc1ccc(F)cc1
inactive: dose: 6.25 mg/kg/injection, schedule: Q01DX009 (ip), vehicle: Klucel (hydroxypropylcellulose) (HPC) 96 % of control | dose: 12.5 mg/kg/injection, schedule: Q01DX009 (ip), vehicle: Klucel (hydroxypropylcellulose) (HPC) 105 % of control | [18] 108 % of control

COc1ccc(/C=C\C(=O)OCCCCOC(=O)/C=C/c2ccc(OC)cc2)cc1
inactive: dose: 50.0 mg/kg/injection, schedule: Q01DX001 (ip), vehicle: saline 95 % of control | [6] 95 % of control | [7] 95 % of control | [8] 95 % of control
